Here are results for eleven compounds from patent US20100269215A1 (SNU R&DB Foundation, priority 2006, published 2010).

Data set [1] relates to TflA protein. In words: Degradation of toxoflavin and its derivatives by TflA protein (TLC enzyme analysis). The data set is classed as biochemical, Paenibacillus polymyxa JH2. The conditions noted are these: within given time; see FIG. 8. As for the experimental part:
5 μM TflA protein, 10 μM MnCl2 and 5 mM DTT (dithiothreitol) were added to analysis buffer (50 mM sodium phosphate (pH 6.5)) to give 200 μl mixture and the reaction was carried out at 25 °C. […] After 10 min of the reaction, 200 μl of chloroform was added to stop the reaction. The chloroform layer was dried completely, then 10 μl of 100% methanol was added. An aliquot taken from the reaction mixture comprising methanol was applied on a TLC plate using pipette. The resulting plate was placed in TLC chamber containing mixed solvents of chloroform and methanol (95:5, V:V) at room temperature. TLC was visualized under UV illuminator (254 nm and 365 nm).

In data set [2] the test system is transgenic plants to which the toxoflavin-resistant gene has been incorporated. In words: Seeds on MS plate containing toxoflavin, transgenic plants. The data set is classed as in vivo, Arabidopsis thaliana. The conditions noted are these: media comprising 20 uM toxoflavin; ten days. As for the experimental part:
Detailed method for the transformation is described below. • 1. […] 0.03% silwet was added to the suspension. • 4. […] The plants were wrapped with a plastic bag. Bags were removed two days later.
Roots were also growing well.

The test system of data set [3] is rice callus transformed with pCamLA vector. In words: Selection with toxoflavin of rice callus transformed with pCamLA. In kind it is cell-based.
The test system is the same in data set [4]. In words: Survival of rice callus under selection with toxoflavin, pCamLA. The data set is classed as cell-based.
Data set [5] concerns Arabidopsis Col-0, non-transgenic organisms. In words: Germination and growth on toxoflavin medium, non-transgenic Arabidopsis. Conditions: 20 uM toxoflavin. The data set is classed as in vivo, Arabidopsis thaliana.
Data set [6] concerns rice callus transformed with pTflA vector. In words: Selection with toxoflavin of rice callus transformed with pTflA. The data set is classed as cell-based.
The test system of data set [7] is Arabidopsis Col-0, transgenic organisms with tflA. In words: Photo-bleaching test, transgenic Arabidopsis. In kind it is in vivo, Arabidopsis thaliana. Conditions: FIG. 24. The text has this:
(§1) Such results correspond to the result of PCR described above.

The test system of data set [8] is transgenic organisms. In words: Photo-bleaching test, transgenic Arabidopsis. The data set is classed as in vivo, Arabidopsis thaliana. The conditions noted are these: transgenic organisms selected for the test; FIG. 24.
Description: as §1

The test system of data set [9] is wild rice leaves (Dongjinbyeo wild-type plant). Nature of the data set: Toxoflavin treatment of leaf pieces, wild-type rice. In kind it is in vivo. The conditions noted are these: 0, 25, 50 or 100 μM toxoflavin, 48 hrs, under light; seen 40 hrs after treatment. As for the experimental part: (§2) Thus, the experiment of the present invention was carried out under light.

The test system of data set [10] is rice callus transformed with pTflA vector. In words: Survival of rice callus under selection with toxoflavin, pTflA. In kind it is cell-based.
Data set [11] concerns leaves of transgenic T3 rice plant with tflA gene. In words: Toxoflavin treatment of leaf pieces, transgenic T3 rice plant expressing tflA. Conditions: 0, 25, 50 or 100 μM toxoflavin, 48 hrs, under light. In kind it is in vivo. As for the experimental part:
as §2

In data set [12] the test system is leaves of the transgenic plants to which tflA gene has been introduced. Nature of the data set: Toxoflavin treatment of cut rice leaves, transgenic T3 plants. Conditions: toxoflavin 0, 25, 50 or 100 μM, under light, 48 hrs. As to the method:
as §2

Data set [13] relates to leaves of wild rice. Nature of the data set: Toxoflavin treatment of cut rice leaves, wild type. The conditions noted are these: toxoflavin 0, 25, 50 or 100 μM, under light; 40 hrs after the treatment. As for the experimental part:
as §2

Data set [14] has as its system Arabidopsis Col-0. In words: Photo-bleaching test, non-transgenic Arabidopsis. In kind it is in vivo, Arabidopsis thaliana.
Description: as §1

Data set [15] concerns Arabidopsis Col-0, non-transgenic organisms. In words: Photo-bleaching test, non-transgenic Arabidopsis. In kind it is in vivo, Arabidopsis thaliana.
Description: as §1

Data set [16] deals with non-transgenic organisms (Arabidopsis Col-0). Nature of the data set: Seeds on MS plate containing toxoflavin, non-transgenic organisms. The data set is classed as in vivo, Arabidopsis thaliana. Conditions: media comprising 20 uM toxoflavin; ten days.
Data set [17] concerns Cn1ncnc2c(=O)n(C)c(=O)nc1-2. Nature of the data set: purified protein, by the assay type. Conditions: other: toxoflavin 80-200 μM, 50 mM sodium phosphate pH 6.5, MnCl2 and DTT, Lineweaver-Burk plot.
Description: Each of experimental points is a mean value that is calculated from data obtained from at least of three measurements.
The mark [18] stands for this setting: toxoflavin 5 ug/ml, selection before redifferentiation, FIG. 18.
The mark [19] stands for this setting: toxoflavin 5 ug/ml, before redifferentiation.
Where [20] appears, read: toxoflavin 7.5 ug/ml, four weeks after placement on redifferentiation medium.
[21] abbreviates: various concentrations, even at low concentration.

In the case of 4,8-dihydrotoxoflavin, the “degradation by TflA protein” value in [1] is on record as “completely degraded”.
The same measure, in the same setting: to `CC1=NN(C)c2[nH]c(=O)n(C)c(=O)c2N1` [3-methyl 4,8-dihydrotoxoflavin] belongs “partially degraded”; to `Cc1n[nH]c2nc(=O)n(C)c(=O)c-2n1` [3-methylreumycin], “completely degraded”.
The same measure, in the same setting: the value for `Cc1nc2c(=O)n(C)c(=O)nc-2n(C)n1` [3-methyltoxoflavin] was “completely degraded”; that for `Cn1c(=O)nc2[nH]nc(-c3ccccc3)nc-2c1=O` [3-phenylreumycin] was “not degraded at all”.
Still for that read-out and setting: to `Cn1nc(-c2ccccc2)nc2c(=O)n(C)c(=O)nc1-2` [3-phenyltoxoflavin] belongs “not degraded at all”; to `O=c1[nH]c(=O)c2cc3ccccc3nc2[nH]1` [5-deazaflavin], “not degraded at all”.
On to `Cn1c(=O)c2ncnnc2n(C)c1=O` [fervenulin], for which the “degradation by TflA protein” value in [1] is on record as “partially degraded”.
Take `Cn1c(=O)[nH]c2nncnc2c1=O` [reumycin]: the “degradation by TflA protein” value in data set [1] is listed as “partially degraded”.
Regarding `Cn1ncnc2c(=O)n(C)c(=O)nc1-2` [toxoflavin], the growth entry in data set [2] is reported as “show normal growth”. In addition, the “degradation by TflA protein” value in data set [1] is “completely degraded”. For the same compound, the survival of callus in data set [3] (setting [18]) is on record as “most of the callus died out”; in data set [3] (toxoflavin 7.5 ug/ml, four weeks after placement on medium for redifferentiation, FIG. 19) it was “most of the callus died out”; in data set [4] (setting [19]), “most of the callus died out”; in data set [4] (setting [20]), “most of the callus died out”; in data set [6] (setting [18]), “only a part of the callus died out”; in [6] (toxoflavin 7.5 ug/ml, four weeks after placement on medium for redifferentiation, FIG. 20), “the callus was redifferentiated normally”. Also, the survival of callus is “only a part of the callus died out” in data set [10] (setting [19]) and “the callus was redifferentiated normally” in [10] (setting [20]). Moreover, in data set [5], the germination entry is listed as “germination did not occur for most of the non-transgenic organisms”. In data set [5], the “root growth where germination occurred” value is given as “root growth was not normal”. Besides, the photo-bleaching entry in [7] was “photo-bleaching was not observed”; in [8], “photo-bleaching was not observed”; in data set [14] (non-transgenic organisms, FIG. 24) it was “the bleaching occurred”; in data set [15] (bleaching test, FIG. 24), “the bleaching occurred”. Further, the discoloration of leaves entry in data set [9] is “discoloration due to the toxin started to show up”; in data set [11], “no such discoloration was observed”; in data set [12], “no such discoloration was observed”; in data set [13] it was “discoloration due to the toxin started to show up”. Further, the “bleaching effect on the plant” value in data set [14] (setting [21]) is given as “exerts a bleaching effect”. Further, in [15] (setting [21]), the bleaching effect result is “even at low concentration toxoflavin exerts a bleaching effect”. In [16], the “germination and root growth” value is “germination did not occur for most of the non-transgenic organisms”.
On to “Paenibacillus polymyxa JH2 TflA protein, wild type, N-terminal His-tagged (His-TflA), SEQ ID NO: 2 (Paenibacillus polymyxa)”, for which the Km (in general, the substrate concentration at which the rate is half of its maximum) in [17] is 69.72 µM.
